Read-outs that look alike come from different tables or passages of the source.
What was measured:
GST-TβR-I [1] = molecular target: T1, GST-TβR-I (Homo sapiens, UniProt P36897, T204D); assay: In vitro kinase assay: phosphorylation of GST-Smad3deltaMH1 by GST-TβR-I; format: biochemical
T1 construct: the complete cytoplasmic part (amino acid residues 148-503) of constitutively active TβR-I (T204D) FLAG-tagged at the C-terminus; made in house; host or cells: E. coli
T1 sequence (P36897 148-503 T204D): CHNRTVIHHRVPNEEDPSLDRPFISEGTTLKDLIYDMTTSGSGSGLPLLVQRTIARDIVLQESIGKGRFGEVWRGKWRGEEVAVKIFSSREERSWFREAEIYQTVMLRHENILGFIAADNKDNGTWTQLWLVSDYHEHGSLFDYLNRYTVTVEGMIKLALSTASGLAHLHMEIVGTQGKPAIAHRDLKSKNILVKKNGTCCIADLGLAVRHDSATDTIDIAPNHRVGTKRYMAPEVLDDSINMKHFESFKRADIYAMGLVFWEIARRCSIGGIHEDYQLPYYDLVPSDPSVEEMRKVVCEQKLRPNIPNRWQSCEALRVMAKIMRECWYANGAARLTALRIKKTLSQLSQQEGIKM

Mv1Lu cells = assay: Growth inhibition assay, [3H]thymidine incorporation; format: cell-based; details: peptide 50 μM, TGFβ1 0.1 ng/ml, 24 hours, FIG. 7
Description: Growth inhibition assay: Growth inhibition assay with MV1Lu cells, using evaluation of [^3H]thymidine incorporation, was performed as described earlier. Briefly, cells were preincubated with peptides for 30 min, and then treated or not with TGFβ1 (0.1 ng/ml) for 24 h. During the last two hours of incubation, [^3H]thymidine was added. Radioactivity incorporated into DNA was measured in a scintillation counter. No cytotoxic effects of peptides were observed after 24 h incubation with cells, as evaluated by observation of cells in a microscope.
To explore whether the antp-Sm2A (SEQ ID NO:2) peptide can interfere with the TGFβ-dependent effects on cells, we performed an assay with Mv1Lu cells, which are widely used in studies of TGFβ effects and are potently growth-inhibited by TGFβ [29]. […] [^3H]thymidine was added to cells for last two hours of incubation, and radioactivity incorporated into DNA was measured.

[2] = tested on: phosphorylation of endogenous Smad2 by TβR-I in Mv1Lu cells; assay: TGFβ1-dependent phosphorylation of endogenous Smad2 in Mv1Lu cells (pS2 immunoblot); format: cell-based; details: for Effect of low molecular weight inhibitors on TGFβ1-dependent phosphorylation of Smad2: Mv1Lu cells, TGFβ1 10 ng/ml 30 min, FIG. 3A
[3] = molecular target: T2, constitutively active TβR-I (Homo sapiens, UniProt P36897, T204D); assay: In vitro kinase assay with immunoprecipitated constitutively active TβR-I expressed in Mv1Lu cells; format: biochemical; details: immunoprecipitated from Mv1Lu cells, data not shown
T2 construct: made in house; host or cells: Mv1Lu cells (expressed, immunoprecipitated)
T2 sequence (P36897 34-503 T204D): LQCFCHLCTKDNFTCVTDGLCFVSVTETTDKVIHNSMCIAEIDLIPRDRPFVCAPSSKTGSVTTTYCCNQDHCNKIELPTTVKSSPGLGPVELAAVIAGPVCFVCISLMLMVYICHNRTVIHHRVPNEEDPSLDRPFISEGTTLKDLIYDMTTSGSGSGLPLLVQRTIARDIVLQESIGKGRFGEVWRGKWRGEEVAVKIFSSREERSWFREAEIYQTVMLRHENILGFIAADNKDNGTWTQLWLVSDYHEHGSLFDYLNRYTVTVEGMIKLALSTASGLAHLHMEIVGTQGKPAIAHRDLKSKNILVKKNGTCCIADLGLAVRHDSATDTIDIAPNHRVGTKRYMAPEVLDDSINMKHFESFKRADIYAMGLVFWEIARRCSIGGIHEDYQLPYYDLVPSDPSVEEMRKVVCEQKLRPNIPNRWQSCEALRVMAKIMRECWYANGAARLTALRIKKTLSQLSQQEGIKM

GST-TβR-I [4] = molecular target: T1, GST-TβR-I; assay: GST-TβR-I autophosphorylation assay; format: biochemical; details: peptides at 1 and 10 μM, FIG. 4A
Description: In vitro kinase assay: GST-TβRI activity was assayed in vitro using the known TβR-I substrates GST-Smad3deltaMH1, GST-Smad2; GST-Smad1 was used as a control for specificity. The reaction mixture (20 μl) contained 20 mM HEPES (pH 7.4), 10 mM MgCl2, 2 mM MnCl2, 1 mM dithiothreitol (DTT), 5 μM ATP plus 0.5 μCi [γ^32P]ATP (Redivue, Amersham Biosciences), and inhibitors at different concentrations. The reaction was initiated by an addition of 0.02 μg purified GST-TβRI, followed by incubation at 22° C. for 20 min. Reaction was terminated by addition of 5 μl of 5× SDS-sample buffer. Samples were subjected to SDS-PAGE followed by analysis in a FujiX2000 phosphorimager. For all in vitro enzyme assays, the percent inhibition was calculated as 100×(1-Ai/A0), where Ai and A0 are levels of GST-Smad phosphorylation in the presence and absence of inhibitors, respectively. […] Phosphorylated GST-Smad3deltaMH1 and autophosphorylated GST-TβRI were analyzed by tryptic phosphopeptide mapping, as described previously.
A GST-TβR-I autophosphorylation assay was performed in the absence or presence of antp-Sm2S (SEQ ID NO:3), antp-Sm2A (SEQ ID NO:2) and antp-Sm5A (SEQ ID NO:4) peptides at concentrations of 1 and 10 μM, as indicated (FIG. 4A).

p38 MAP = p38 MAP (Homo sapiens, UniProt Q16539); details: Calbiochem product data sheets; read-out: IC50 p38 MAP in vitro; cited from earlier work
[5] = in vitro kinase assay, 5 μM ATP, read-out: IC50 GST-TβRI in vitro

Sequence of p38 MAP (Q16539 whole entry): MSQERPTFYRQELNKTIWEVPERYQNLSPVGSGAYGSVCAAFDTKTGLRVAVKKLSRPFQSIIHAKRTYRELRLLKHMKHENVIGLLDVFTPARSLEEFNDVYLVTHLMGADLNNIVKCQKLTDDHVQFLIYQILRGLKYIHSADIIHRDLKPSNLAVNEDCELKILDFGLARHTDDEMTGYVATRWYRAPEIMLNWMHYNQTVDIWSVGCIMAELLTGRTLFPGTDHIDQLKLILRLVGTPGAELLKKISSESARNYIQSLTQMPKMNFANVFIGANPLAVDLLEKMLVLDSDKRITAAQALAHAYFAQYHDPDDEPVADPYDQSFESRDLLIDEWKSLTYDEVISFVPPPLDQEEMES

CC[C@H](CO)Nc1nc(NCc2ccccc2)c2ncn(C(C)C)c2n1 [roscovitine]
Effect on the kinase activity of GST-TβR-I (phosphorylation of GST-Smad3deltaMH1) (GST-TβR-I [1]): did not have an effect

RQIKIWFQNRRMKWKKTQMGSPLNPISAVA (listed as Homo sapiens) [antp-Sm5A, penetratin fused to Smad5 C-terminus with serines replaced by alanine; specificity control, reference compound]
Reversion of the inhibitory action of TGFβ1 on DNA synthesis (Mv1Lu cells): did not have any effect
Effect of peptides on TGFβ1-dependent phosphorylation of endogenous Smad2 ([2]; Mv1Lu cells pretreated with peptide, 15 min TGFβ1, FIG. 6A): did not have any effect
Inhibition of autophosphorylation of TβR-I [3]: only a marginal effect
Inhibition of autophosphorylation of GST-TβR-I (GST-TβR-I [4]): No or only weak inhibition

Oc1ccc(-c2nc(-c3ccncc3)c(-c3ccc(F)cc3)[nH]2)cc1 [SB202190]
IC50 (GST-TβR-I [1]; read-out: IC50 for inhibition of GST-TβR-I): 0.02 µM

CC1CNCCN1S(=O)(=O)c1cccc2cnccc12.Cl (stereo not shown) [H7]
Effect of low molecular weight inhibitors on TGFβ1-dependent phosphorylation of Smad2 [2]: weaker than that of SB203580
IC50 (GST-TβR-I [1]; [5]): 200 µM
Effect on the kinase activity of GST-TβR-I (phosphorylation of GST-Smad3deltaMH1) (GST-TβR-I [1]; in vitro kinase assay, FIG. 2A): inhibited

Cc1nc(-c2ccncc2)c(-c2ccccc2)o1 [SC68376]
IC50 (p38 MAP): 2 to 5 µM
IC50 (GST-TβR-I [1]; [5]): 5 µM

COc1cccc(-c2cc(=O)c3ccccc3o2)c1N [PD98058]
Effect on the kinase activity of GST-TβR-I (phosphorylation of GST-Smad3deltaMH1) (GST-TβR-I [1]; in vitro kinase assay, FIG. 2A): did not have an effect

CN[C@@H]1C[C@H]2O[C@@](C)([C@@H]1OC)n1c3ccccc3c3c4c(c5c6ccccc6n2c5c31)C(=O)NC4 [staurosporine]
Effect on the kinase activity of GST-TβR-I (phosphorylation of GST-Smad3deltaMH1) (GST-TβR-I [1]): did not have an effect

CCc1[nH]c(-c2ccc(OC)cc2)nc1-c1ccncc1 [SB202474]
IC50 (GST-TβR-I [1]; [5]): 30 µM

C[S+]([O-])c1ccc(-c2nc(-c3ccc(F)cc3)c(-c3ccncc3)[nH]2)cc1 (stereo not shown) [SB203580]
Effect of low molecular weight inhibitors on TGFβ1-dependent phosphorylation of Smad2 [2]: significantly reduced
inhibition at 25 µM ([2]; Mv1Lu, 0.5 h, read-out: Inhibition of TGFβ1-induced Smad2 phosphorylation): 57%

From patent publication US20050136043A1, “TGFbeta signaling inhibitors” (Ludwig Institute for Cancer Research, priority 2003, published 2005)
